In BindingDB's records for doi:10.1021/jm500801r (Southern Research Institute, 2014):

Test: Antagonist activity against human D3R expressed in CHO cells assessed as inhibition of quinpirole-induced mitogenesis after 16 hrs by [3H]thymidine uptake assay

Row | Structure (SMILES) | IC50 [nM]
1 | O=C(NCCCCN1CCN(c2cccc(Cl)c2Cl)CC1)c1cn2ccccc2n1 | 7.2
2 | CC(C)(C)c1nc(N2CCN(CCCCNC(=O)c3nc4ccccc4[nH]3)CC2)cc(C(F)(F)F)n1 | 208
3 | COc1ccccc1N1CCN(CCCCNC(=O)c2cn3ccccc3n2)CC1 | 3
4 | O=C(NCCCCN1CCN(c2ncnc3ccccc23)CC1)c1cn2ccccc2n1 | 940
